Measurements: ChEMBL document CHEMBL1201862, “PubChem BioAssay data set” (2004)
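A five-concentration, 48-hour dose response in 96-well plates underlies each endpoint, interpolated linearly between surrounding concentrations. Here, GI50 denotes the concentration required for 50% inhibition of growth.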 The source made the active and inactive calls. No stated cut-off is given here; in the data, active = GI50 up to about 1.1 µM and inactive = higher.

Key:
Experiment in all cases: inhibition of tumour cell growth, NCI panel, 48 h
SF-268 = system: SF-268
HCC 2998 = system: HCC 2998
TK-10 = system: TK-10
U-251 = system: U-251
Malme-3M = system: Malme-3M
NCI-H226 = system: NCI-H226
SNB-75 = system: SNB-75
786-0 = system: 786-0
UO-31 = system: UO-31
SK-MEL-28 = system: SK-MEL-28
SK-OV-3 = system: SK-OV-3
RXF 393 = system: RXF 393
HCT-15 = system: HCT-15
NCI-H23 = system: NCI-H23
HOP-62 = system: HOP-62
M14 = system: M14
UACC-62 = system: UACC-62
NCI-H522 = system: NCI-H522
HL-60 = system: HL-60
A549 = system: A549

SMILES | GI50 (SF-268) | GI50 (HCC 2998) | GI50 (TK-10) | GI50 (U-251) | GI50 (Malme-3M) | GI50 (NCI-H226) | GI50 (SNB-75) | GI50 (786-0) | GI50 (UO-31) | GI50 (SK-MEL-28) | GI50 (SK-OV-3) | GI50 (RXF 393) | GI50 (HCT-15) | GI50 (NCI-H23) | GI50 (HOP-62) | GI50 (M14) | GI50 (UACC-62) | GI50 (NCI-H522) | GI50 (HL-60) | GI50 (A549)
Cc1ccc(F)cc1NC(=O)O/N=C(\Cl)C(C)C | 24.5 µM (inactive) | 16.2 µM (inactive) | 3.71 µM (inactive) | 23.3 µM (inactive) | 2.7 µM (inactive) | 14 µM (inactive) | 14.8 µM (inactive) | 5.69 µM (inactive) | 7.98 µM (inactive) | 15.8 µM (inactive) | 20.2 µM (inactive) | 3.05 µM (inactive) | 1.82 µM | 17.9 µM (inactive) | 19.5 µM (inactive) | 5.22 µM (inactive) | 13.2 µM (inactive) | 0.791 µM (active) | 2.32 µM (inactive) | 18.9 µM (inactive)
CC(C)(C)NC(=O)CCC1C(C(=O)NC(C)(C)C)C2(Cl)C(Cl)=C(Cl)C1(Cl)C2(Cl)Cl (stereo unspecified) | > 100 µM (inactive) | > 100 µM (inactive) | > 100 µM (inactive) | > 100 µM (inactive) | > 100 µM (inactive) | > 100 µM (inactive) | > 100 µM (inactive) | > 100 µM (inactive) | > 100 µM (inactive) | > 100 µM (inactive) | > 100 µM (inactive) | > 100 µM (inactive) | > 100 µM | > 100 µM (inactive) | > 100 µM (inactive) | > 100 µM (inactive) | > 100 µM (inactive) | > 100 µM (inactive) | > 100 µM (inactive) | > 100 µM (inactive)
COn1cc(CO)c2ccccc21 | > 88.7 µM (inactive) | 32.8 µM (inactive) | 5.96 µM (inactive) | 69.7 µM (inactive) | 53 µM (inactive) | 1.57 µM (inactive) | > 100 µM (inactive) | > 86.9 µM (inactive) | 33.1 µM (inactive) | > 100 µM (inactive) | > 100 µM (inactive) | 21.5 µM (inactive) | > 88.7 µM | > 100 µM (inactive) | > 100 µM (inactive) | > 86.9 µM (inactive) | 43.3 µM (inactive) | 21.5 µM (inactive) | 31.3 µM (inactive) | > 62.1 µM (inactive)
COC(=O)C1CCC[C@H]2C(CO)=C(C)C(=O)[C@@H]12 (stereo partly specified) | > 100 µM (inactive) | > 100 µM (inactive) | > 100 µM (inactive) | > 100 µM (inactive) | > 100 µM (inactive) | > 100 µM (inactive) | > 100 µM (inactive) | > 100 µM (inactive) | > 100 µM (inactive) | > 100 µM (inactive) | > 100 µM (inactive) | > 100 µM (inactive) | > 100 µM | > 100 µM (inactive) | > 100 µM (inactive) | > 100 µM (inactive) | > 100 µM (inactive) | > 100 µM (inactive) | > 100 µM (inactive) | > 100 µM (inactive)
Cc1cccc(C(C)(C)C)c1NC(=O)CCc1nnc(S)[nH]1 | > 100 µM (inactive) | > 100 µM (inactive) | > 100 µM (inactive) | > 100 µM (inactive) | > 100 µM (inactive) | > 100 µM (inactive) | > 100 µM (inactive) | > 100 µM (inactive) | > 100 µM (inactive) | > 100 µM (inactive) | > 100 µM (inactive) | > 100 µM (inactive) | > 100 µM | > 100 µM (inactive) | > 100 µM (inactive) | > 100 µM (inactive) | > 100 µM (inactive) | > 100 µM (inactive) | > 100 µM (inactive) | > 100 µM (inactive)
CCN(CC)CCCNc1nc(=O)[nH]c(C)c1C(=O)Nc1cccc2cc3ccccc3cc12 | – | > 100 µM (inactive) | > 100 µM (inactive) | > 100 µM (inactive) | > 100 µM (inactive) | > 100 µM (inactive) | > 100 µM (inactive) | > 100 µM (inactive) | > 100 µM (inactive) | > 100 µM (inactive) | > 100 µM (inactive) | 78.7 µM (inactive) | > 100 µM | > 100 µM (inactive) | > 100 µM (inactive) | > 100 µM (inactive) | > 100 µM (inactive) | 85.3 µM (inactive) | > 100 µM (inactive) | > 100 µM (inactive)
C/C(=N\N=C(/S)N(C)C)c1cccnn1 | 0.65 µM (active) | 7.46 µM (inactive) | 4.05 µM (inactive) | 0.977 µM (active) | 0.76 µM (active) | 0.849 µM (active) | 2.03 µM (inactive) | 0.486 µM (active) | 0.564 µM (active) | 1.29 µM (inactive) | 1.26 µM (inactive) | 0.488 µM (active) | 0.468 µM | 1.13 µM (inactive) | 1.05 µM (active) | 0.594 µM (active) | 0.486 µM (active) | 0.74 µM (active) | 0.365 µM (active) | 0.832 µM (active)
Cc1ccccc1C(=O)c1c(O)c2c(c(O)c1Br)CCCC2 | 15 µM (inactive) | 19.5 µM (inactive) | 17.8 µM (inactive) | 16.7 µM (inactive) | 11.5 µM (inactive) | 25.4 µM (inactive) | 18.7 µM (inactive) | 14.5 µM (inactive) | 17.5 µM (inactive) | – | 21.8 µM (inactive) | 18.7 µM (inactive) | 16.7 µM | 26.2 µM (inactive) | 37.2 µM (inactive) | 14 µM (inactive) | 15.1 µM (inactive) | 10.5 µM (inactive) | 5.07 µM (inactive) | 23.2 µM (inactive)
N#CCCc1nc2ccc(Br)cc2c(=O)n1-c1ccc(O)c([N+](=O)[O-])c1 | 24.1 µM (inactive) | 18.6 µM (inactive) | 34.7 µM (inactive) | > 10 µM (inactive) | 17.3 µM (inactive) | 19.9 µM (inactive) | 26.7 µM (inactive) | 19.3 µM (inactive) | 25.6 µM (inactive) | 19.3 µM (inactive) | 38.5 µM (inactive) | 18.1 µM (inactive) | 18.8 µM | 20.8 µM (inactive) | 36.5 µM (inactive) | 21 µM (inactive) | 18.9 µM (inactive) | 15.8 µM (inactive) | 17.2 µM (inactive) | 55 µM (inactive)
COc1ccc(C(C#N)NCCCCCCNC(C#N)c2ccc(OC)cc2)cc1 (stereo unspecified) | > 100 µM (inactive) | > 100 µM (inactive) | > 100 µM (inactive) | > 100 µM (inactive) | > 100 µM (inactive) | > 100 µM (inactive) | > 100 µM (inactive) | > 100 µM (inactive) | > 100 µM (inactive) | > 100 µM (inactive) | > 100 µM (inactive) | > 100 µM (inactive) | > 100 µM | > 100 µM (inactive) | > 100 µM (inactive) | > 100 µM (inactive) | > 100 µM (inactive) | > 100 µM (inactive) | > 100 µM (inactive) | > 100 µM (inactive)
O=C(/C=C1\C[C@H]2C=Nc3ccccc3C(=O)N2C1)NCCCCCNC(=O)/C=C1\C[C@H]2C=Nc3ccccc3C(=O)N2C1 | 6.49 µM (inactive) | 18.5 µM (inactive) | 4.32 µM (inactive) | 3.03 µM (inactive) | 2.52 µM (inactive) | > 51.5 µM (inactive) | 13.6 µM (inactive) | 1.84 µM (inactive) | 1.94 µM (inactive) | 12.1 µM (inactive) | 16.2 µM (inactive) | 3.56 µM (inactive) | 3.44 µM | 9.91 µM (inactive) | 14.2 µM (inactive) | 3.49 µM (inactive) | 14.7 µM (inactive) | 0.726 µM (active) | 2.4 µM (inactive) | 22.9 µM (inactive)
Cn1c(=O)c2c(nc3sc4c(n32)C(=O)c2c(O)ccc(O)c2C4=O)n(C)c1=O | 6.04 µM (inactive) | 4.11 µM (inactive) | 5.97 µM (inactive) | 14.6 µM (inactive) | 1.06 µM (active) | 53.8 µM (inactive) | 2.99 µM (inactive) | 1.75 µM (inactive) | 3.74 µM (inactive) | 6.05 µM (inactive) | 40.7 µM (inactive) | 2.68 µM (inactive) | 1.73 µM | 7.55 µM (inactive) | 12.8 µM (inactive) | 2.51 µM (inactive) | 4.73 µM (inactive) | 0.137 µM (active) | 0.51 µM (active) | 12.7 µM (inactive)
CC1=C[C@@H]2Cc3occc3C(C)(C)[C@@H]2CC1 | 20.2 µM (inactive) | 21.4 µM (inactive) | 22.4 µM (inactive) | 18.5 µM (inactive) | 20 µM (inactive) | 17.9 µM (inactive) | 18.1 µM (inactive) | 19.4 µM (inactive) | 19.2 µM (inactive) | 24 µM (inactive) | 38.1 µM (inactive) | 18.7 µM (inactive) | – | 24.5 µM (inactive) | 32.4 µM (inactive) | 22.3 µM (inactive) | > 10 µM (inactive) | 14.7 µM (inactive) | 19.3 µM (inactive) | 22.9 µM (inactive)
O=C(O)/C=C/c1ccncc1 | > 100 µM (inactive) | > 100 µM (inactive) | > 100 µM (inactive) | 0.173 µM (active) | > 100 µM (inactive) | > 100 µM (inactive) | > 100 µM (inactive) | > 100 µM (inactive) | > 100 µM (inactive) | > 100 µM (inactive) | > 100 µM (inactive) | > 100 µM (inactive) | 14.5 µM | > 100 µM (inactive) | 0.223 µM (active) | > 100 µM (inactive) | > 100 µM (inactive) | > 100 µM (inactive) | > 100 µM (inactive) | –
